From patent US7465814B2, “Sulfonate compound and fluorescent probe using the same” (priority 2003, dated 2008) come the findings set out here.

Series [1] is described as follows: Fluorescent response to diethylamine (Table 1). In kind it is biochemical. The following applies: relative fluorescence intensity, blank = 10; probe 21.3 μM, diethylamine 50 μM, 37° C., 10 minutes. The protocol: (§1) Moreover, in other conditions than those of the above-described tests, reactivity of all of the compounds 1a to 1d with H2O2, other various kinds of nucleophilic agents, reducing agents and the like also was tested, respectively. More specifically, fluorescent responses of 1a to 1d with respect to a XO-HPX system, a XO-HPX-SOD system, H2O2, ascorbic acid, 1,4-hydroquinone, propylamine, diethylamine, glucose, esterase, a cytochrome P450 reductase+NADPH system, and a diaphorase+NADH system were measured, respectively. Operational processes thereof will be described below. Firstly, 1a to 1d and the above-described reagents were dissolved in HEPES of 10 mM having a pH of 7.4 so as to prepare solutions, respectively. Next, a 96 wellmicroplate was provided, where any of the solutions of 1a to 1d (25 μM, 170 μL) was poured into each of the wells, and furthermore, 30 μL of a blank solution or 30 μL of the solution of the reagent to be reacted therewith was added thereto. Final concentrations of the solutions in the wells were adjusted so that concentrations of the solutions of 1a to 1d respectively could be 21.3 μM, that of XO could be 13.1 mU/mL, those of HPX, H2O2, ascorbic acid, 1,4-hydroquinone, propylamine, diethylamine, glucose, NADPH and NADH respectively could be 50 μM, that of cytochrome P450 reductase could be 68 mU/mL, that of diaphorase could be 65 mU/mL, and that of esterase could be 0.5 U/mL, respectively. Then, after they reacted in the wells at 37° C. for 10 minutes, fluorescent responses were measured respectively. Fluorescence intensity measurement was conducted by using an ETC-272 Peltier thermostatted single cell holder (trade name) manufactured by JASCO Corporation or a SpectraMax GeminiEM fluorescence plate reader (trade name) manufactured by Molecular Devices Corporation provided with a FP-750 spectrofluorometer (trade name) manufactured by JASCO Corporation, and by setting excitation wavelengths and emission wavelengths so that those of 1a, 1b and 1c respectively could be 485 nm and 515 nm, and those of 1d respectively could be 511 nm and 540 nm.

Series [2] can be described thus: Fluorescent response to glucose (Table 1). It is filed as biochemical. The following applies: relative fluorescence intensity, blank = 10; probe 21.3 μM, glucose 50 μM, 37° C., 10 minutes. The protocol: as §1
The test system of the next series is esterase. The series can be described thus: Fluorescent response to esterase (Table 1). In kind it is biochemical. The settings on record: relative fluorescence intensity, blank = 10; probe 21.3 μM, esterase 0.5 U/mL, 37° C., 10 minutes. The protocol:
as §1

Series [3] in a line: Quantitativity of fluorescence response in the HPX/XO system, 96-well microplate assay. In kind it is biochemical. The procedure: According to a 96 wellmicroplate assay, sensitivity and quantitativity of the fluorescence response of the probe (the compound 1d) in the HPX/XO system were tested. Specifically, a DMSO solution of 1d (10 mM) was diluted by 400-fold with HEPES (pH 7.4, 10 mM) so as to prepare a probe solution, and this probe solution (150 μL) was mixed with a HEPES solution of HPX (10 μL) and a HEPES solution of XO (0.26 U/mL, 10 μL), and was allowed to stand still at 37° C. for 10 minutes, and thereafter, a fluorescence intensity was measured. […] A correlation coefficient of this linear calibration curve was 1.000, and an inclination thereof was 0.58 au/pmol.
More specifically, an assay condition was the same as that in the above-described measurement, except providing a DMSO solution of 1d with a concentration of 5 mM, preparing a probe solution by diluting this DMSO solution by 400-fold with HEPES (pH 7.4, 10 mM), and using 180 μL of the probe solution. Fluorescence intensity measurement was conducted by using an ETC-272 Peltier thermostatted single cell holder (trade name) manufactured by JASCO Corporation or a SpectraMax GeminiEM fluorescence plate reader (trade name) manufactured by Molecular Devices Corporation provided with a FP-750 spectrofluorometer (trade name) manufactured by JASCO Corporation. As a result, a detection limit value of the concentration of HPX was 1.0 pmol (RSD, n=8; 2.9%), and a favorable linear calibration curve with a correlation coefficient of 0.9993 and an inclination of 0.80 au/pmol was obtained, with the concentration of HPX ranging from the detection limit value to 2.0 nmol. The inclination of this linear calibration curve is different from that of the above-described measurement, because of using the arbitrary units for the fluorescence intensities and the different measurement apparatuses.

A further series concerns neutrophils. The settings on record: for cell viability after the incubation with respect to before the incubation: 37° C., 120 minutes. The protocol: Moreover, a toxicity of the compound 1d with respect to the neutrophils was evaluated by estimating cell viability by a trypan blue dyeing method. More specifically, the neutrophils (1.0×10^5 cells) were incubated at 37° C. for 120 minutes in a glass test tube coated with human serum albumin, in the presence of both of the compound 1d (6.25 μM) and PMA (0.16 μM), in the presence of either of them, and in the absence of them, respectively. Then, cell viability after the incubation with respect to cell viability before the incubation was measured.

A short description of series [4]: Capability as superoxide-detecting fluorescent probe (reactivity with superoxide). In kind it is biochemical. The procedure:
Then, by mainly using the compound 1d as a testing compound, the capability thereof as a superoxide-selective fluorescent probe was evaluated, and moreover, a test in a cell system also was conducted. These tests will be described below.
Thus, it is thought that each compound synthesized from a combination of: a phenolic colorant; and a 2,4-dinitrobenzenesulfonyl group, a 4-trifluoromethyl-2-nitrobenzenesulfonyl group or a 4-nitrobenzenesulfonyl group can be used as a superoxide-detecting fluorescent probe similarly. An example of the usage thereof will be shown in Scheme 8 below. Furthermore, it can be expected that a compound for a fluorescent probe having characteristics that are suitable for its application purpose can be designed and developed freely, by designing the compound of the present invention freely within the limitation defined by the general formula (I) and using the fluorescence mechanism developed by the inventors of the present invention, without being limited to the above-described combinations. Examples of the application purpose of the compound of the present invention are varied, including an application to a faintly coloring technique using superoxide.

Read-outs that look alike come from different tables or passages of the source.

For the molecule `O=C1OC2(c3ccccc31)c1cc(F)c(OS(=O)(=O)c3ccc([N+](=O)[O-])cc3[N+](=O)[O-])c(F)c1Oc1c2cc(F)c(OS(=O)(=O)c2ccc([N+](=O)[O-])cc2[N+](=O)[O-])c1F` [Compound 1d], the “fluorescent response, diethylamine” value in series [1] is on record as 11. Further, the “fluorescent response, glucose” value in series [2] is reported as 10. Also, the “fluorescent response, esterase” value in the series with esterase is 15. Moreover, the “detection limit value of HPX” value in series [3] (10 mM DMSO solution diluted 400-fold, 150 μL probe solution, 37° C., 10 minutes) worked out at 5.0 pmol; in series [3] (different apparatus, 5 mM DMSO solution diluted 400-fold, 180 μL probe solution) it was 1.0 pmol. Moreover, the “inclination of linear calibration curve” value in series [3] (10 mM DMSO solution diluted 400-fold, 150 μL, HPX from detection limit to 10.0 nmol) was found to be 0.58 au/pmol; in series [3] (different apparatus, 5 mM DMSO solution, 180 μL, HPX from detection limit to 2.0 nmol), 0.80 au/pmol. For the same molecule, the “cell viability after the incubation with respect to before the incubation” value was found to be 97% in the series with neutrophils (in the presence of both 1d (6.25 μM) and PMA (0.16 μM)); 95% in the series on neutrophils (substance only (1d 6.25 μM or PMA 0.16 μM), 1.0×10^5 neutrophils). The “toxicity with respect to the neutrophils” value in the series with neutrophils (incubation of 120 minutes) is reported as “did not show any significant toxicity”. Also, in series [4], the “fluorescence response by reacting with superoxide” value is listed as “particularly superior in sensitivity”.
